pEC50, pKi: −log10 of the molar value. Non-standard residues stand in square brackets, D forms with d. Residues, ends and D or L forms follow the SMILES beside them. 2Nal = N[C@@H](Cc1ccc2ccccc2c1)C(=O)O
What was measured:
[1] = biological target: T1, Melanocyte-stimulating hormone receptor (Homo sapiens, UniProt Q01726); assay: Displacement of europium labeled NDP-alpha-MSH from human MC1R expressed in HEK293 cells; assay type: cell-based
[2] = biological target: T2, Melanocortin receptor 3 (Homo sapiens, UniProt P41968); assay: Displacement of europium labeled NDP-alpha-MSH from human MC3R expressed in HEK293 cells; assay type: cell-based
[3] = biological target: T3, Melanocortin receptor 4 (Homo sapiens, UniProt P32245); assay: Displacement of europium labeled NDP-alpha-MSH from human MC4R expressed in HEK293 cells; assay type: cell-based
[4] = biological target: T1, Melanocyte-stimulating hormone receptor; assay: Agonist activity at human MC1R transfected in HEK293 cells; assay type: functional, cell-based
[5] = biological target: T2, Melanocortin receptor 3; assay: Agonist activity at human MC3R transfected in HEK293 cells; assay type: functional, cell-based
[6] = biological target: T3, Melanocortin receptor 4; assay: Agonist activity at human MC4R transfected in HEK293 cells; assay type: functional, cell-based
[7] = Absorptive permeability across Caco-2 cell membrane; assay type: ADME, cell-based; settings: human, read-out: permeability (converted)
[8] = Exsorptive permeability across Caco-2 cell membrane; assay type: ADME, cell-based; settings: human, read-out: permeability (converted)
[9] = biological target: Melanocortin receptor (M1 and M4) (Homo sapiens) (UniProt P32245+Q01726); assay: Selectivity for human MC4R over human MC1R; assay type: protein assay

T3 sequence (P32245 whole entry): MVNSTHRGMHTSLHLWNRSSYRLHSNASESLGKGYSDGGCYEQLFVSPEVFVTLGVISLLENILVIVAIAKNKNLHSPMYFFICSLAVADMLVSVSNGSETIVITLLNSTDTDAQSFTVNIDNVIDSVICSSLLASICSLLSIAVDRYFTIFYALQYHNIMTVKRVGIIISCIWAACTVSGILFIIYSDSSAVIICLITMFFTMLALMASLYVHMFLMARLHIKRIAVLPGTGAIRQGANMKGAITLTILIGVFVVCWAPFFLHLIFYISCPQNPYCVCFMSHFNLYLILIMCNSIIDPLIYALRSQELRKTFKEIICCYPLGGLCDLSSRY
T2 sequence (P41968 whole entry): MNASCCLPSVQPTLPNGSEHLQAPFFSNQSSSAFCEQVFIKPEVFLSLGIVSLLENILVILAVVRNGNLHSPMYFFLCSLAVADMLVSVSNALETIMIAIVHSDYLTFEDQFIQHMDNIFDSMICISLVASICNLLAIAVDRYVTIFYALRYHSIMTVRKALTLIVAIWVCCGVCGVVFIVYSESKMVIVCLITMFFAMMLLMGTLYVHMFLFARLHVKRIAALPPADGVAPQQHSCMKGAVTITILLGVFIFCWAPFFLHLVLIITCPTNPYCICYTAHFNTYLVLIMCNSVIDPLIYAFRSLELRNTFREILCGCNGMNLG
T1 sequence (Q01726 whole entry): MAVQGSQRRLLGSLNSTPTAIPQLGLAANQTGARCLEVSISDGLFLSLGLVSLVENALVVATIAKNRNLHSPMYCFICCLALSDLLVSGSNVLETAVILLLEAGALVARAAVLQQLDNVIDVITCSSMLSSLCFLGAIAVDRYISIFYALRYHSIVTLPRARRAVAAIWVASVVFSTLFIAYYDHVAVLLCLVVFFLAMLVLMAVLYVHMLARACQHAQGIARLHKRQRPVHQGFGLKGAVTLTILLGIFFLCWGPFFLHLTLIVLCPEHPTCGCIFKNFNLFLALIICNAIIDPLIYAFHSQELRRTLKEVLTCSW

N=C(N)NCCC[C@H]1C[C@@H](OCc2ccc3ccccc3c2)CN1C(=O)[C@@H](Cc1ccccc1)NC(=O)[C@@H]1Cc2ccccc2CN1
pKi [1]: 7.38
pKi [2]: 7.07
pKi [3]: 8.00
pEC50 [4]: 7.01
pEC50 [5]: 6.63
pEC50 [6]: 8.00

N=C(N)NCCNC(=O)[C@H]1C[C@@H](OCc2ccc3ccccc3c2)CN1C(=O)[C@@H](Cc1ccccc1)NC(=O)[C@@H]1CCCCN1
pKi [1]: 6.20
pKi [2]: 5.41
pKi [3]: 5.86
pEC50 [4]: 6.41
pEC50 [5]: 5.75
pEC50 [6]: 6.53

NC(=O)C[C@H](N)C(=O)N[C@H](Cc1ccccc1)C(=O)N1C[C@@H](OCc2ccc3ccccc3c2)C[C@H]1CCCN=C(N)N
pKi [1]: 5.80
pKi [2]: 4.54
pKi [3]: 5.09
pEC50 [4]: 6.28
pEC50 [5]: 5.52
pEC50 [6]: 5.79

CC(=O)N[C@@H](Cc1cnc[nH]1)C(=O)N[C@H](Cc1ccccc1)C(=O)N1C[C@H](OCc2ccc3ccccc3c2)C[C@@H]1CCCN=C(N)N
pKi [1]: 9.19
pKi [2]: 7.59
pKi [3]: 7.77
pEC50 [4]: 9.52
pEC50 [5]: 7.82
pEC50 [6]: 8.43

N=C(N)NCCC[C@@H]1C[C@H](OCc2ccc3ccccc3c2)CN1C(=O)[C@@H](Cc1ccccc1)NC(=O)[C@@H]1Cc2ccccc2CN1
pKi [1]: 5.85
pKi [2]: 5.38
pKi [3]: 6.17
pEC50 [4]: 5.87
pEC50 [5]: 5.50
pEC50 [6]: 6.34

OC[C@@H](O)[C@@H](O)[C@H](O)[C@H](O)CO [MANNITOL]
Papp A→B [7]: 2.17 ×10⁻⁶ cm/s
Papp [8]: 1.83 ×10⁻⁶ cm/s

CC(=O)N[C@@H](CCC(N)=O)C(=O)N[C@H](Cc1ccccc1)C(=O)N1C[C@H](OCc2ccc3ccccc3c2)C[C@@H]1CCCN=C(N)N
pKi [1]: 7.46
pKi [2]: 7.30
pKi [3]: 7.74
pEC50 [4]: 7.35
pEC50 [5]: 7.38
pEC50 [6]: 8.37

NC(N)=NCCNC(=O)[C@H]1C[C@@H](OCc2ccc3ccccc3c2)CN1C(=O)[C@@H](Cc1ccccc1)NC(=O)[C@@H](N)Cc1c[nH]cn1
pKi [1]: 7.82
pKi [2]: 6.15
pKi [3]: 6.12
pEC50 [4]: 7.62
pEC50 [5]: 6.58
pEC50 [6]: 6.60

NC(N)=NCCC[C@H]1C[C@@H](OCc2ccc3ccccc3c2)CN1C(=O)[C@@H](Cc1ccccc1)NC(=O)[C@@H]1CCCN1
pKi [1]: 7.26
pKi [2]: 6.66
pKi [3]: 7.34
pEC50 [4]: 7.28
pEC50 [5]: 6.23
pEC50 [6]: 7.77

NC(=O)C[C@H](N)C(=O)N[C@H](Cc1ccccc1)C(=O)N1C[C@@H](OCc2ccc3ccccc3c2)C[C@@H]1CCCN=C(N)N
pKi [1]: 6.99
pKi [2]: 6.08
pKi [3]: 6.73
pEC50 [4]: 8.37
pEC50 [5]: 8.00
pEC50 [6]: 8.10

N=C(N)NCCC[C@@H]1C[C@@H](OCc2ccc3ccccc3c2)CN1C(=O)[C@@H](Cc1ccccc1)NC(=O)[C@@H]1CCCCN1
pKi [1]: 6.47
pKi [2]: 5.13
pKi [3]: 5.77
pEC50 [4]: 6.35
pEC50 [6]: 4.96

CC(=O)N[C@@H](Cc1ccc(O)cc1)C(=O)N[C@H](Cc1ccccc1)C(=O)N1C[C@H](OCc2ccc3ccccc3c2)C[C@@H]1C(=O)NCCN=C(N)N
pKi [1]: 5.69
pKi [2]: 6.30
Selectivity ratio [9]: 4
pKi [3]: 6.25
pEC50 [4]: 5.87
pEC50 [5]: 5.91
pEC50 [6]: 6.60

NC(=O)C[C@H](N)C(=O)N[C@H](Cc1ccccc1)C(=O)N1C[C@H](OCc2ccc3ccccc3c2)C[C@H]1CCCN=C(N)N
pKi [1]: 6.35
pKi [2]: 4.81
pKi [3]: 5.18
pEC50 [4]: 6.40
pEC50 [6]: 4.70

N=C(N)NCCC[C@H]1C[C@H](OCc2ccc3ccccc3c2)CN1C(=O)[C@@H](Cc1ccccc1)NC(=O)[C@@H]1Cc2ccccc2CN1
pKi [1]: 6.25
pKi [2]: 6.28
pKi [3]: 7.01
pEC50 [4]: 7.14
pEC50 [5]: 6.67
pEC50 [6]: 7.44

CC(=O)N[C@@H](Cc1ccc(O)cc1)C(=O)N[C@H](Cc1ccccc1)C(=O)N1C[C@H](OCc2ccc3ccccc3c2)C[C@@H]1CCCN=C(N)N
pKi [1]: 7.07
pKi [2]: 7.38
Selectivity ratio [9]: 4
pKi [3]: 7.68
pEC50 [4]: 7.06
pEC50 [5]: 7.07
pEC50 [6]: 7.85

NC(N)=NCCNC(=O)[C@H]1C[C@@H](OCc2ccc3ccccc3c2)CN1C(=O)[C@@H](Cc1ccccc1)NC(=O)C1CCNCC1
pKi [1]: 6.92
pKi [2]: 5.50
pKi [3]: 5.99
pEC50 [4]: 6.98
pEC50 [5]: 5.61
pEC50 [6]: 6.30

NC(N)=NCCC[C@H]1C[C@@H](OCc2ccc3ccccc3c2)CN1C(=O)[C@H](N)Cc1ccccc1
pKi [1]: 6.42
pKi [2]: 5.91
pKi [3]: 6.52
pEC50 [4]: 6.82
pEC50 [5]: 6.06
pEC50 [6]: 6.54

CC(=O)N[C@@H](Cc1c[nH]cn1)C(=O)N[C@H](Cc1ccccc1)C(=O)N1C[C@H](OCc2ccc3ccccc3c2)C[C@H]1CCCN=C(N)N
pKi [1]: 8.33
pKi [2]: 5.14
pKi [3]: 5.54
pEC50 [4]: 8.10
pEC50 [5]: 5.43
pEC50 [6]: 6.01

CC(=O)N[C@@H](Cc1ccc(O)cc1)C(=O)N[C@H](Cc1ccccc1)C(=O)N1C[C@@H](OCc2ccc3ccccc3c2)C[C@@H]1CCCN=C(N)N
pKi [1]: 6.86
pKi [2]: 6.37
pKi [3]: 6.61
pEC50 [4]: 7.15
pEC50 [5]: 7.17
pEC50 [6]: 7.41

N=C(N)NCCNC(=O)[C@H]1C[C@@H](OCc2ccc3ccccc3c2)CN1C(=O)[C@@H](Cc1ccccc1)NC(=O)[C@@H]1Cc2ccccc2CN1
pKi [1]: 5.79
pKi [2]: 5.36
Selectivity ratio [9]: 4
pKi [3]: 6.39
pEC50 [4]: 6.27
pEC50 [5]: 6.08
pEC50 [6]: 7.01

NC(N)=NCCC[C@H]1C[C@@H](OCc2ccc3ccccc3c2)CN1C(=O)[C@@H](Cc1ccccc1)NC(=O)[C@@H]1CCCCN1
pKi [1]: 7.40
pKi [2]: 6.81
pKi [3]: 7.51
pEC50 [4]: 7.52
pEC50 [5]: 6.59
pEC50 [6]: 7.85

N=C(N)NCCC[C@@H]1C[C@@H](OCc2ccc3ccccc3c2)CN1C(=O)[C@@H](Cc1ccccc1)NC(=O)[C@@H]1Cc2ccccc2CN1
pKi [1]: 7.72
pKi [2]: 5.09
pKi [3]: 5.36
pEC50 [4]: 7.72
pEC50 [5]: 5.83
pEC50 [6]: 5.96

NC(N)=NCCC[C@H]1C[C@@H](OCc2ccc3ccccc3c2)CN1C(=O)[C@@H](Cc1ccccc1)NC(=O)CCc1ccccc1
pKi [1]: 6.21
pKi [2]: 6.39
pKi [3]: 6.86
pEC50 [4]: 6.23
pEC50 [5]: 5.69
pEC50 [6]: 6.58

CC(=O)N[C@@H](Cc1c[nH]cn1)C(=O)N[C@@H](Cc1ccccc1)C(=O)N[C@@H](CCCN=C(N)N)C(=O)N[C@@H](Cc1c[nH]c2ccccc12)C(N)=O
pKi [1]: 7.46
pKi [2]: 5.54
pEC50 [4]: 7.85
pEC50 [5]: 6.61

CC(=O)N[C@@H](Cc1ccc(O)cc1)C(=O)N[C@H](Cc1ccccc1)C(=O)N1C[C@H](OCc2ccc3ccccc3c2)C[C@H]1CCCN=C(N)N
pKi [1]: 5.77
pKi [2]: 4.72
pKi [3]: 5.63
pEC50 [4]: 5.76
pEC50 [6]: 4.70

CNC(=O)[C@H](Cc1ccc2ccccc2c1)NC(=O)[C@H](CCCN=C(N)N)NC(=O)[C@H](N)Cc1ccccc1
pKi [1]: 5.36
pKi [2]: 4.65
pKi [3]: 5.70
pEC50 [4]: 4.70
pEC50 [6]: 6.09

CC(=O)N[C@@H](Cc1ccc(O)cc1)C(=O)N[C@H](Cc1ccccc1)C(=O)N1C[C@@H](OCc2ccc3ccccc3c2)C[C@H]1CCCN=C(N)N
pKi [1]: 5.61
pKi [2]: 5.54
pKi [3]: 6.31
pEC50 [4]: 5.74
pEC50 [5]: 5.93
pEC50 [6]: 6.60

N=C(N)NCCC[C@H]1C[C@H](OCc2ccc3ccccc3c2)CN1C(=O)[C@@H](Cc1ccccc1)NC(=O)[C@@H]1CCCCN1
pKi [1]: 6.90
pKi [2]: 5.90
pKi [3]: 6.92
pEC50 [4]: 7.55
pEC50 [5]: 6.54
pEC50 [6]: 7.27

CC(=O)N[C@@H](Cc1c[nH]cn1)C(=O)N[C@H](Cc1ccccc1)C(=O)N1C[C@@H](OCc2ccc3ccccc3c2)C[C@@H]1CCCN=C(N)N
pKi [1]: 8.89
pKi [2]: 6.93
pKi [3]: 7.24
pEC50 [4]: 10.35
pEC50 [5]: 8.89
pEC50 [6]: 8.64

CC(=O)N[C@@H](CCC(N)=O)C(=O)N[C@H](Cc1ccccc1)C(=O)N1C[C@H](OCc2ccc3ccccc3c2)C[C@@H]1C(=O)NCCN=C(N)N
pKi [1]: 6.05
pKi [2]: 5.83
pKi [3]: 6.20
pEC50 [4]: 6.48
pEC50 [5]: 6.25
pEC50 [6]: 6.74

CC(=O)N[C@@H](Cc1c[nH]cn1)C(=O)N[C@H](Cc1ccccc1)C(=O)N1C[C@@H](OCc2ccc3ccccc3c2)C[C@H]1CCCN=C(N)N
pKi [1]: 5.53
pKi [2]: 5.71
Selectivity ratio [9]: > 150
pKi [3]: 7.85
pEC50 [4]: 5.91
pEC50 [5]: 5.95
pEC50 [6]: 8.05

N=C(N)NCCC[C@@H]1C[C@H](OCc2ccc3ccccc3c2)CN1C(=O)[C@@H](Cc1ccccc1)NC(=O)[C@@H]1CCCCN1
pKi [1]: 5.75
pKi [2]: 5.14
pKi [3]: 5.65
pEC50 [4]: 5.97
pEC50 [6]: 6.29

CNC(=O)[C@H](Cc1ccc2ccccc2c1)NC(=O)[C@H](CCCN=C(N)N)NC(=O)[C@@H](Cc1ccccc1)NC(=O)[C@H](Cc1ccc(O)cc1)NC(C)=O (Ac-Y[dF]R[2Nal]-NHMe)
pEC50 [4]: 4.70

CNC(=O)[C@H](Cc1ccc2ccccc2c1)NC(=O)[C@H](CCCN=C(N)N)NC(=O)[C@@H](Cc1ccccc1)NC(=O)[C@H](Cc1c[nH]cn1)NC(C)=O
pKi [1]: 7.89
pKi [2]: 5.92
pKi [3]: 7.54
pEC50 [4]: 7.85
pEC50 [5]: 6.27
pEC50 [6]: 8.24

CC(=O)N[C@@H](Cc1ccccc1)C(=O)N[C@H](Cc1ccccc1)C(=O)N1C[C@H](OCc2ccc3ccccc3c2)C[C@@H]1CCCN=C(N)N
pKi [1]: 6.74
pKi [2]: 6.81
pKi [3]: 7.23
pEC50 [4]: 6.70
pEC50 [5]: 6.50
pEC50 [6]: 7.70
